The source of these data is patent US10450364B2 (priority 2017, dated 2019).

Values joined by “and” are separate entries in the source; they are usually repeats but may differ in a detail not shown here. Equal values may be shown once. Where a SMILES comes first, the peptide text is derived from it. Bridges are numbered along the chain shown (N, C = ends). [ ]: non-standard residue; d: D form. The star is where a group is joined. Ileψ(thiazoline)Cys = CC[C@H](C)[C@H](N)C1=N[C@H](C(=O)*)CS1; dOrn = NCCC[C@@H](N)C(=O)O

Experiment [1] deals with Clostridium perfringens. Format: in vivo, broiler chickens. As to conditions: subclinical NE.
Experiment [2] relates to C. perfringens. More on the design: species or system broiler chickens (Cobb 500). As to conditions: in vivo.
Experiment [3] relates to Clostridium perfringens. Also on record: species or system broiler chickens (Cobb 500). As to conditions: in vivo.
[4] abbreviates: raw data of individual birds, 0.5% egg powder, cells marked * removed as outlier.

On to Virginiamycin, for which, in experiment [1] (group average, 0.5% egg powder), the “Weight gain (g) day 0-6 post challenge, Average” value was 226 g and the “Weight gain (g) day 0-11 post challenge, Average” value worked out at 570 g. Moreover, in experiment [1] (group average, egg powder 0.5% in feed (Vir 20 g/ton), scale 0 to 4), the “Lesion Score - day 2 post challenge, Average” value came out at 0.5. Moreover, in experiment [1] (setting [4]), the “Weight gain (g) day 0-6 post challenge” value is 267 g and 211 g (2×) and 256 g and 252 g and 170 g and 213 g and 289 g and 162 g (2×) and 229 g and 241 g and 203 g and 157 g and 195 g and 238 g and 321 g and 233 g and 319 g and 182 g and 239 g; the “Weight gain (g) day 0-11 post challenge” value is 618 g and 554 g and 520 g and 540 g and 467 g and 479 g and 544 g and 566 g and 420 g and 552 g and 607 g and 686 g and 568 g and 723 g and 709 g. For the same compound, the “Lesion Score - day 2 post challenge” value in experiment [1] (raw data of individual birds, egg powder 0.5% in feed (Vir 20 g/ton), scale 0 (none) to 4 (high)) is 1 (3×) and 0 (3×).
As to `CC[C@H](C)[C@H](N)C1=N[C@H](C(=O)N[C@@H](CC(C)C)C(=O)N[C@H](CCC(=O)O)C(=O)N[C@H](C(=O)N[C@H]2CCCCNC(=O)[C@H](CC(N)=O)NC(=O)[C@@H](CC(=O)O)NC(=O)[C@H](Cc3cnc[nH]3)NC(=O)[C@@H](Cc3ccccc3)NC(=O)[C@H]([C@@H](C)CC)NC(=O)[C@@H](CCCN)NC2=O)[C@@H](C)CC)CS1` [bacitracin] ({Ileψ(thiazoline)Cys}-L[dE]IK[dOrn]I[dF]H[dD]N; lactam 4-C), in experiment [2], the “% NE Mortality” value is recorded as 9.4bc %, the “Feed Intake D 0-28” value stood at 6.708bcd, the “Lesion Score (0-3)” value was determined as 1.3 bc and the “Weight Gain D 0-28” value amounted to 0.648bcd. In experiment [3], the “% NE Mortality” value is given as 10.9bcde %, the “Feed Intake D 0-28” value worked out at 8.040bc, the “Lesion Score (0-3)” value was 1.0bc and the “Weight Gain D 0-28” value is on record as 0.590bcd.
